System: Caco-2 cells
Assay: Endocytosis inhibition experiments (Neu5Gc uptake in Caco-2 cells)
Format: cell-based, human
Settings: 2 h pre-treatment with drug, then 3 mM Neu5Gc
Procedure: The sonicate was centrifuged at 75×g for 15 min., and the pellet obtained consisted primarily of nuclei and unbroken cells. […] A portion (20%) of the “total homogenate” fraction was taken for protein quantification and Sia analysis by DMB derivatization and HPLC analysis (as discussed below.) The remainder was centrifuged at 100,000×g for 1 h. The resulting pellet, called the “membrane” fraction, was then resuspended by sonication (15 sec.) in 200 μl of sodium acetate buffer, pH 5.5. The 100,000×g supernatant, called the “soluble” fraction was adjusted to 90% ethanol using absolute ice-cold ethanol, and placed overnight at −20° C. The flocculant precipitate, which represents the “soluble protein” fraction, was washed 3 times with 90% ice-cold ethanol and then resuspended in 200 μl of water. The supernatant fluid representing the cytosolic low molecular weight (LMW) fraction was dried and brought up in 100 μL with water prior to Sia analysis. All the Sias in these fractions were released with mild acid hydrolysis if necessary and then analyzed by HPLC after DMB derivatization. Protein quantification was performed on the total homogenate, membrane and soluble protein fractions by using the BCA protein assay kit from Pierce (Rockford, Ill.) In some experiments, the resulting data obtained for the Sia bound to the membrane fraction and to the soluble proteins were pooled and presented here as a High Molecular Weight (HMW) fraction. Sialic Acid Release, DMB Derivatization and HPLC Analysis—The bound Sias from the total homogenate, membrane and soluble protein fractions were released using 2M acetic acid hydrolysis, 3 h. at 80° C. The released Sias, or free Sias, contained in the soluble LMW fraction were passed through a Microcon® YM-10 filter (Millipore, Bedford, Mass.) prior to DMB derivatization, which was done according to Hara et al., 1989. […] The eluant was monitored by fluorescence. Quantification of Sias—For all HPLC chromatograms, the quantification of Sias was done by comparison with known quantities of DMB derivatized Neu5Gc and Neu5Ac used as standards and then reported in terms of pmoles of Sia. For total homogenate, membrane and cytosolic protein fractions, this number was expressed per mg of protein. Due to minor sample-to-sample variations in amounts and recoveries, the data in the Figures is presented as percent of Neu5Gc over total Sias, rather than as absolute amounts. Endocytosis Inhibition Experiments—Caco-2 or normal fibroblast cells were split and cultured in alpha-MEM media supplemented respectively with 20% or 15% human serum for 4 days before starting the endocytosis drug inhibition experiments in order to deplete any Neu5Gc derived from FCS. Cells were then pre-treated for 2 h. with the specific inhibitors under the same culture conditions. Fresh media containing the same amount of inhibitor and 3 mM of Neu5Gc was then added to the cells, which were incubated for 16 h or 3 days and finally harvested and fractionated as described above.

Compound	Neu5Gc incorporation into membrane-bound glycoconjugates in the presence of inhibitor (percent of total Sia)	incorporation of Neu5Gc in the TH fraction in the presence of inhibitor (percent of total Sia)
N=C(N)NC(=O)c1nc(Cl)c(N)nc1N [amiloride]	10%	–
CN(C)CCCN1c2ccccc2Sc2ccc(Cl)cc21 [chlorpromazine]	50%	–
O=c1c(-c2ccc(O)cc2)coc2cc(O)cc(O)c12 [genistein]	34%	51%
C[C@@H]1[C@H](O)[C@@H](C)/C=C/C=C/CC/C=C/C=C/C=C/C=C/C(O[C@H]2O[C@H](C)[C@@H](O)[C@H](N)[C@@H]2O)CC2O[C@](O)(CC(O)C(O)CCC(O)CC(O)CC(O)CC(=O)O[C@H]1C)CC(O)C2C(=O)O (stereo partly drawn) [nystatin]	44%	~65%

From patent US20080166805A1, “Culturing human cells and tissues in an N-glycolylneuraminic acid-free environment” (The Regents of the University of California, priority 2005, published 2008)
